According to patent publication US20250073303A1, “TDP-43 Interference Peptides, Methods, and Uses Thereof” (The University of British Columbia, priority 2022, published 2025):

Key:
[1] = test system: mice with LPS plus sciatic nerve axotomy; experiment: LPS (5 mg/kg) plus sciatic nerve axotomy in mice: Fluoro Jade C neurodegeneration staining; format: in vivo, mouse; settings: 20 mg/kg daily i.p., day 7
Method: FIG. 14: Example peptide D prevents neurodegeneration in ventral horn of spinal cord of mice with LPS plus sciatic nerve axotomy. Mice underwent LPS administration (5 mg/kg, i.p.) plus sciatic nerve axotomy on day 0 and tissues were collected and fixed on day 7 after the surgical procedure. Fluoro Jade (neurodegeneration marker) staining of ventral horn of spinal cord of mice in each indicated treatment group (upper panel) and counterstained with DAPI (lower panel). 20 mg/kg of peptide D was injected daily through i.p. route.
Neurodegeneration in the lumbar spinal cord of mice 7 days after administration of LPS plus surgery was then evaluated using Fluoro Jade C staining. Animals were divided into two peptide D treatment groups. In one group, peptide D administration started on the day of surgery, and in the other group, peptide D treatment started at 3 days post-surgery when the TDP-43 proteinopathies were at their maximum.

[2] = target: TDP-43 (Mus musculus, UniProt Q921F2); experiment: Sodium arsenite induced TDP-43 and phosphoTDP43 aggregates in HL-1 cells; format: cell-based; parameters: endogenous in cells; host or cells: HL-1 cells (cardiomyocytes); settings: 0.05 mM sodium arsenite 16 hours
Method: FIG. 12. Example peptide D reduces TDP-43 and phosphoTDP43 aggregates in HL-1 cells following sodium arsenite treatment. Western blot analysis of protein expression (TDP-43, phosphoTDP-43, PARP and actin) in either soluble or insoluble fractions of HL-1 cells with 16 h treatment of sodium arsenite (0.05 mM).
In order to evaluate the function of example peptide D on alleviation of TDP-43 proteinopathies in cardiomyocytes, 0.05 mM of sodium arsenite was employed to treat HL-1 cells for 16 hours to induce TDP-43 and phosphoTDP43 aggregates. […] 20 μM of peptide D treatment in HL-1 cells under the same treatment conditions reduced insoluble aggregates of TDP-43 and phosphoTDP-43.

[3] = test system: SH-SY5Y cells; experiment: Stress granule (TIA-1) numbers in SH-SY5Y cells with sodium arsenite; format: cell-based, human; settings: 1 mM sodium arsenite 1 hour, TIA-1 staining, vs scramble
[4] = test system: mice with LPS plus sciatic nerve axotomy; experiment: LPS (1 mg/kg daily) plus sciatic nerve axotomy in mice: microglia activation and motor neuron death; format: in vivo, mouse; settings: LPS 1 mg/kg daily i.p. plus axotomy
Method: FIG. 15: Example peptide D reduces microglia activation in lumbar spinal cord of mice with LPS plus sciatic nerve axotomy. Mice underwent LPS administration (1 mg/kg, daily, i.p.) plus sciatic nerve axotomy on day 0 and tissues were collected and fixed on day 7 post-surgery. Iba-1 staining of lumbar spinal cord of mice in each indicated group were counterstained with DAPI. 20 mg/kg of peptide D was injected daily through the i.p. route.
FIG. 16: Example peptide D prevents motor neuron death in ventral horn of spinal cord (L6) of mice with LPS plus sciatic nerve axotomy. Mice underwent LPS treatment (1 mg/kg, daily, i.p.) plus sciatic nerve axotomy on day 0 and tissue was collected and fixed on day 7 post-surgery. Markers of (A) ChAT staining (red) indicating motor neurons and (B) NeuN staining (green) counterstained with DAPI indicated alpha motor neurons in ventral horn of mice in each group. […]
Although neurodegeneration was detected in spinal cord of mice treated with a high dose of LPS (5 mg/kg, i.p.) plus sciatic nerve axotomy, motor neuron death was not observed in this model. […]
Since LPS causes systematic inflammation, microglia activation in ventral horn of spinal cord was first detected by staining with an Iba-1 antibody. […]

Chain of TDP-43 (Q921F2 whole entry): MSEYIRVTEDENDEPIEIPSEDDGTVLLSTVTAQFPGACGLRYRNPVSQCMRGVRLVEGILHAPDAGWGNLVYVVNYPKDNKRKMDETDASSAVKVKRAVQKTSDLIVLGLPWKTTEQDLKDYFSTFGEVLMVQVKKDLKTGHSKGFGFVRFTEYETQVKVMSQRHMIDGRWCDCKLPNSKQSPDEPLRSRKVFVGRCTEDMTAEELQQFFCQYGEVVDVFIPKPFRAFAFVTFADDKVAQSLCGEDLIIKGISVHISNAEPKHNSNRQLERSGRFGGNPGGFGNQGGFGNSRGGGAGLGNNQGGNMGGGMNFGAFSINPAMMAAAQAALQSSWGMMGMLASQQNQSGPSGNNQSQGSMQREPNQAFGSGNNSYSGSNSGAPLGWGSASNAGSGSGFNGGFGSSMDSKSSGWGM

peptide D: candidate peptide from a CK-1δ binding region for TDP-43, truncated HIV-1 TAT domain added at the N-terminal (YGRKKRRQRRRGFSYDYVFDWNMLK)
neurodegeneration in the ventral horn of spinal cord (Fluoro Jade C) ([1]; administration started on the day of surgery): less neurodegeneration
neurodegeneration in the ventral horn of spinal cord (Fluoro Jade C) ([1]; treatment started at 3 days post-surgery): less neurodegeneration
insoluble aggregates of TDP-43 and phosphoTDP-43 ([2]; 20 μM peptide): reduced
PARP cleavage product ([2]; treated vs untreated cells): reduced
number of stress granules (SGs) induced by sodium arsenite [3]: reduced
general microglia activation in lumbar spinal cord (Iba-1) ([4]; day 7, 20 mg/kg daily i.p.): reduced
motor neuron death (ChAT and NeuN staining) ([4]; day 7 post-surgery): less motor neuron death
